Experimental data from patent US20260217765A1, “NOVEL ANTIMICROBIAL PEPTIDE DESIGNED FROM DUCK-DERIVED ANTIMICROBIAL PEPTIDE ANDUSE THEREOF” (INDUSTRY-ACADEMIC COOPERATION FOUNDATION, CHOSUN UNIVERSITY, priority 2023, published 2026).
≈ marks a conversion by molar mass, not a printed value. Peptide text beside a SMILES is read from it.

Assays:
[1] = test system: Acinetobacter baumannii KCTC 2508; format: cell-based; conditions: KCTC 2508, 24 h
Description: Specifically, among the bacterial strains listed in Table 2, those known to form biofilms well (Acinetobacter baumannii KCTC 2508, Acinetobacter baumannii isolate 10, and isolate 14) were cultured in the appropriate media to the mid-log phase and diluted to a cell concentration of 5×10^4 cells/100 µL, followed by inoculation into microplates (SPL). Subsequently, the peptides prepared in <Example 1> were serially 10-fold diluted with 10 mM sodium phosphate buffer (pH 7.2), and 10 μL of each dilution was added to each well. The plates were then incubated at 37° C. for 24 hours. After completely removing the supernatant, the plates were fixed with 100% methanol for 15 minutes, stained with crystal violet staining solution for 1 hour, washed three times, and then the stain was solubilized with 95% ethanol. Absorbance was measured at 595 nm using a microplate reader to determine the MBIC values for each bacterial strain.

[2] = test system: Acinetobacter baumannii_isolate 6 (antibiotic-resistant); format: cell-based, Acinetobacter baumannii; conditions: isolate 6 (antibiotic-resistant)
Text: (§1) To compare the antimicrobial activity of the peptides prepared in <Example 1>, the minimum inhibitory concentration (MIC), […] measured. Here, the minimal inhibitory concentration (MIC) refers to the lowest concentration of a substance that prevents visible bacterial growth.
(§2) Specifically, the bacterial strains listed in Table 2 below were obtained and cultured in media suitable for each strain until the mid-log phase. The cultures were then diluted to a concentration of 2×10^4 cells/100 μL and prepared in microtiter plates (Nunc, USA). Subsequently, serial 2-fold dilutions of the peptides prepared in Example 1 were prepared, and 10 μL of each dilution was added to the wells, and the plates were incubated at 37° C. for 18 hours. Absorbance at 600 nm was measured using a microtiter plate reader (Merck ELISA reader, Germany) to determine the MIC values for each bacterial strain. The parent peptide dCATH was used as a control.

[3] = test system: Acinetobacter baumannii_isolate 12 (antibiotic-resistant); format: cell-based, Acinetobacter baumannii; conditions: isolate 12 (antibiotic-resistant)
Text: as §1, §2

[4] = test system: Acinetobacter baumannii_isolate 17 (antibiotic-resistant); format: cell-based, Acinetobacter baumannii; conditions: isolate 17 (antibiotic-resistant)
Text: as §1, §2

[5] = test system: Acinetobacter baumannii_isolate15 (antibiotic-resistant); format: cell-based, Acinetobacter baumannii; conditions: isolate15 (antibiotic-resistant)
Text: as §1, §2

[6] = test system: Acinetobacter baumannii_isolate 3 (antibiotic-resistant); format: cell-based, Acinetobacter baumannii; conditions: isolate 3 (antibiotic-resistant)
Text: as §1, §2

[7] = test system: Acinetobacter baumannii_isolate 10 (antibiotic-resistant); format: cell-based, Acinetobacter baumannii; conditions: isolate 10 (antibiotic-resistant)
Text: as §1, §2

[8] = test system: Acinetobacter baumannii_isolate 4 (antibiotic-resistant); format: cell-based, Acinetobacter baumannii; conditions: isolate 4 (antibiotic-resistant)
Text: as §1, §2

[9] = test system: Acinetobacter baumannii_isolate 8 (antibiotic-resistant); format: cell-based, Acinetobacter baumannii; conditions: isolate 8 (antibiotic-resistant)
Text: as §1, §2

[10] = test system: Acinetobacter baumannii_isolate 2 (antibiotic-resistant); format: cell-based, Acinetobacter baumannii; conditions: isolate 2 (antibiotic-resistant)
Text: as §1, §2

[11] = test system: Acinetobacter baumannii_isolate 26 (antibiotic-resistant); format: cell-based, Acinetobacter baumannii; conditions: isolate 26 (antibiotic-resistant)
Text: as §1, §2

[12] = test system: Acinetobacter baumannii_isolate 14 (antibiotic-resistant); format: cell-based, Acinetobacter baumannii; conditions: isolate 14 (antibiotic-resistant)
Text: as §1, §2

[13] = test system: Acinetobacter baumannii_isolate21 (antibiotic-resistant); format: cell-based, Acinetobacter baumannii; conditions: isolate21 (antibiotic-resistant)
Text: as §1, §2

[14] = test system: Acinetobacter baumannii_isolate 1 (antibiotic-resistant); format: cell-based, Acinetobacter baumannii; conditions: isolate 1 (antibiotic-resistant)
Text: as §1, §2

[15] = test system: Acinetobacter baumannii_isolate 5 (antibiotic-resistant); format: cell-based, Acinetobacter baumannii; conditions: isolate 5 (antibiotic-resistant)
Text: as §1, §2

[16] = test system: Acinetobacter baumannii_isolate 22 (antibiotic-resistant); format: cell-based, Acinetobacter baumannii; conditions: isolate 22 (antibiotic-resistant)
Text: as §1, §2

[17] = test system: Acinetobacter baumannii_isolate16 (antibiotic-resistant); format: cell-based, Acinetobacter baumannii; conditions: isolate16 (antibiotic-resistant)
Text: as §1, §2

[18] = test system: Acinetobacter baumannii_isolate 9 (antibiotic-resistant); format: cell-based, Acinetobacter baumannii; conditions: isolate 9 (antibiotic-resistant)
Text: as §1, §2

[19] = test system: Acinetobacter baumannii_isolate 23 (antibiotic-resistant); format: cell-based, Acinetobacter baumannii; conditions: isolate 23 (antibiotic-resistant)
Text: as §1, §2

[20] = test system: Acinetobacter baumannii_isolate 18 (antibiotic-resistant); format: cell-based, Acinetobacter baumannii; conditions: isolate 18 (antibiotic-resistant)
Text: as §1, §2

[21] = test system: Acinetobacter baumannii_isolate11 (antibiotic-resistant); format: cell-based, Acinetobacter baumannii; conditions: isolate11 (antibiotic-resistant)
Text: as §1, §2

[22] = test system: Acinetobacter baumannii_isolate 25 (antibiotic-resistant); format: cell-based, Acinetobacter baumannii; conditions: isolate 25 (antibiotic-resistant)
Text: as §1, §2

[23] = test system: Acinetobacter baumannii_isolate20 (antibiotic-resistant); format: cell-based, Acinetobacter baumannii; conditions: isolate20 (antibiotic-resistant)
Text: as §1, §2

[24] = test system: Acinetobacter baumannii_isolate 13 (antibiotic-resistant); format: cell-based, Acinetobacter baumannii; conditions: isolate 13 (antibiotic-resistant)
Text: as §1, §2

[25] = test system: Acinetobacter baumannii_isolate 19 (antibiotic-resistant); format: cell-based, Acinetobacter baumannii; conditions: isolate 19 (antibiotic-resistant)
Text: as §1, §2

[26] = test system: Acinetobacter baumannii_isolate 7 (antibiotic-resistant); format: cell-based, Acinetobacter baumannii; conditions: isolate 7 (antibiotic-resistant)
Text: as §1, §2

[27] = test system: Acinetobacter baumannii_isolate 24 (antibiotic-resistant); format: cell-based, Acinetobacter baumannii; conditions: isolate 24 (antibiotic-resistant)
Text: as §1, §2

Structure (SMILES)	MBIC [1] [µM]	MIC [2] [µM]	MIC [3] [µM]	MIC [4] [µM]	MIC [5] [µM]	MIC [6] [µM]	MIC [7] [µM]	MIC [8] [µM]	MIC [9] [µM]	MIC [10] [µM]	MIC [11] [µM]	MIC [12] [µM]	MIC [13] [µM]	MIC [14] [µM]	MIC [15] [µM]	MIC [16] [µM]	MIC [17] [µM]	MIC [18] [µM]	MIC [19] [µM]	MIC [20] [µM]	also measured
CC[C@H](C)[C@H](NC(=O)[C@H](C)NC(=O)[C@H](CCCCN)NC(=O)[C@H](CCCCN)NC(=O)[C@@H](NC(=O)[C@H](CC(C)C)NC(=O)[C@H](CCC(N)=O)NC(=O)[C@H](C)NC(=O)[C@H](C)NC(=O)[C@H](CCCNC(=N)N)NC(=O)[C@@H](N)CCCCN)C(C)C)C(=O)N[C@@H](CCCCN)C(=O)N[C@@H](CCCCN)C(=O)N[C@@H](Cc1ccc(O)cc1)C(=O)N[C@@H](CCCNC(=N)N)C(=O)N[C@@H](C)C(=O)N[C@@H](Cc1c[nH]c2ccccc12)C(=O)N[C@@H](CCCCN)C(N)=O [dCATH-A7, KRAAQLVKKAIKKYRAWK] (H-KRAAQLVKKAIKKYRAWK-NH2; N-terminus assumed)	2	1 (≈ 2.19 µg/mL)	1 (≈ 2.19 µg/mL)	1 (≈ 2.19 µg/mL)	1 (≈ 2.19 µg/mL)	1 (≈ 2.19 µg/mL)	1 (≈ 2.19 µg/mL)	1 (≈ 2.19 µg/mL)	1 (≈ 2.19 µg/mL)	1 (≈ 2.19 µg/mL)	1 (≈ 2.19 µg/mL)	1 (≈ 2.19 µg/mL)	1 (≈ 2.19 µg/mL)	1 (≈ 2.19 µg/mL)	1 (≈ 2.19 µg/mL)	1 (≈ 2.19 µg/mL)	1 (≈ 2.19 µg/mL)	1 (≈ 2.19 µg/mL)	1 (≈ 2.19 µg/mL)	1 (≈ 2.19 µg/mL)	MIC [21]: 0.5 µM (≈ 1.09 µg/mL); MIC [22]: 1 µM (≈ 2.19 µg/mL); MIC [23]: 1 µM (≈ 2.19 µg/mL); MIC [24]: 1 µM (≈ 2.19 µg/mL); MIC [25]: 1 µM (≈ 2.19 µg/mL); MIC [26]: 1 µM (≈ 2.19 µg/mL); MIC [27]: 1 µM (≈ 2.19 µg/mL)
CC[C@H](C)[C@H](NC(=O)[C@H](C)NC(=O)[C@H](CC(C)C)NC(=O)[C@H](CCCCN)NC(=O)[C@@H](NC(=O)[C@H](CC(C)C)NC(=O)[C@H](CCC(N)=O)NC(=O)[C@H](C)NC(=O)[C@H](C)NC(=O)[C@H](CCCNC(=N)N)NC(=O)[C@@H](N)CCCCN)C(C)C)C(=O)N[C@@H](CCCCN)C(=O)N[C@H](C(=O)N[C@@H](Cc1ccc(O)cc1)C(=O)N[C@@H](CCCNC(=N)N)C(=O)N[C@@H](C)C(=O)N[C@@H](Cc1c[nH]c2ccccc12)C(=O)N[C@@H](CCCCN)C(=O)N[C@@H](CCCNC(=N)N)C(=O)N[C@@H](CCCNC(=N)N)C(N)=O)[C@@H](C)CC [dCATH-A4] (H-KRAAQLVKLAIKIYRAWKRR-NH2; N-terminus assumed)	4	1 (≈ 2.47 µg/mL)	2 (≈ 4.94 µg/mL)	2 (≈ 4.94 µg/mL)	2 (≈ 4.94 µg/mL)	2 (≈ 4.94 µg/mL)	4 (≈ 9.87 µg/mL)	2 (≈ 4.94 µg/mL)	2 (≈ 4.94 µg/mL)	2 (≈ 4.94 µg/mL)	2 (≈ 4.94 µg/mL)	2 (≈ 4.94 µg/mL)	2 (≈ 4.94 µg/mL)	2 (≈ 4.94 µg/mL)	2 (≈ 4.94 µg/mL)	2 (≈ 4.94 µg/mL)	2 (≈ 4.94 µg/mL)	2 (≈ 4.94 µg/mL)	2 (≈ 4.94 µg/mL)	2 (≈ 4.94 µg/mL)	MIC [21]: 2 µM (≈ 4.94 µg/mL); MIC [22]: 2 µM (≈ 4.94 µg/mL); MIC [23]: 2 µM (≈ 4.94 µg/mL); MIC [24]: 2 µM (≈ 4.94 µg/mL); MIC [25]: 2 µM (≈ 4.94 µg/mL); MIC [26]: 2 µM (≈ 4.94 µg/mL); MIC [27]: 2 µM (≈ 4.94 µg/mL)
CC[C@H](C)[C@H](NC(=O)[C@H](C)NC(=O)[C@H](CC(C)C)NC(=O)[C@@H]1CCCN1C(=O)[C@@H](NC(=O)[C@H](CC(C)C)NC(=O)[C@H](CCC(N)=O)NC(=O)[C@H](C)NC(=O)[C@H](C)NC(=O)[C@H](CCCNC(=N)N)NC(=O)[C@@H](N)CCCCN)C(C)C)C(=O)N[C@@H](CCCCN)C(=O)N[C@H](C(=O)N[C@@H](Cc1ccc(O)cc1)C(=O)N[C@@H](CCCNC(=N)N)C(=O)N[C@@H](C)C(=O)N[C@@H](Cc1c[nH]c2ccccc12)C(=O)N[C@@H](CCCCN)C(=O)N[C@@H](CCCNC(=N)N)C(=O)N[C@@H](CCCNC(=N)N)C(N)=O)[C@@H](C)CC [dCATH-A3] (H-KRAAQLVPLAIKIYRAWKRR-NH2; N-terminus assumed)	2	2 (≈ 4.87 µg/mL)	1 (≈ 2.44 µg/mL)	1 (≈ 2.44 µg/mL)	2 (≈ 4.87 µg/mL)	1 (≈ 2.44 µg/mL)	2 (≈ 4.87 µg/mL)	1 (≈ 2.44 µg/mL)	1 (≈ 2.44 µg/mL)	1 (≈ 2.44 µg/mL)	1 (≈ 2.44 µg/mL)	2 (≈ 4.87 µg/mL)	4 (≈ 9.75 µg/mL)	1 (≈ 2.44 µg/mL)	1 (≈ 2.44 µg/mL)	1 (≈ 2.44 µg/mL)	1 (≈ 2.44 µg/mL)	1 (≈ 2.44 µg/mL)	1 (≈ 2.44 µg/mL)	1 (≈ 2.44 µg/mL)	MIC [21]: 1 µM (≈ 2.44 µg/mL); MIC [22]: 1 µM (≈ 2.44 µg/mL); MIC [23]: 1 µM (≈ 2.44 µg/mL); MIC [24]: 1 µM (≈ 2.44 µg/mL); MIC [25]: 1 µM (≈ 2.44 µg/mL); MIC [26]: 1 µM (≈ 2.44 µg/mL); MIC [27]: 1 µM (≈ 2.44 µg/mL)
